What was measured:
SM1 tumors = assay: Volumetric tumor growth, SM1 melanoma in C57BL/6 mice; assay type: in vivo, mouse; conditions: SM1 model
Excerpt: (§1) All animals were housed at the Vincent A. Stabile Research building animal facility at H. Lee Moffitt Cancer Center & Research Institute, which is fully accredited by the Association for Assessment and Accreditation of Laboratory Animal Care International (AAALAC, #434), and are managed in accordance with the Guide for the Care and Use of Laboratory Animals (“The Guide”), the Animal Welfare Regulations Title 9 Code of Federal Regulations Subchapter A, “Animal Welfare”, Parts 1-3 (AWR), the Public Health Service Policy on Humane Care and Use of Laboratory Animals (PHS Policy), and by the USF Institutional Animal Care and Use Committee's Principles and Procedures of Animal Care and Use (IACUC Principles). The experiments and protocols detailed in this study received institutional approval by the Moffitt IACUC (RIS00001625). Four-to-six-week-old female C3H/HeN and male C57BL6 mice were purchased from Charles Rivers Laboratories for the indicated experiments. Four-to-six-week-old male NSG mice from the Lau laboratory breeding colony were used for the indicated experiments. Power calculations were used to determine mouse cohort sizes to detect significant changes in tumor sizes. […] Mouse tumor volumes were measured using length, width and depth divided by 2. […]

SW1 tumors = assay: SW1 tumor growth in NSG (immunodeficient) mice; assay type: in vivo, mouse
Excerpt: as §1

PD-L1 = assay: Flow cytometric assessment of cell surface PD-L1, human melanoma cells (WM793); assay type: cell-based
Method: Indicated cells were treated for 72 h with DMSO, 250 μM fucosyltransferase inhibitor (FUTi) (Millipore Sigma (St. Louis, MO)), or 250 μM of L-fucose (Biosynth (Oak Terrace, IL)). After 72 h, cells were stained with 0.1 μM PKH26 (Millipore Sigma (St. Louis, MO)) prior to fixation in 4% formaldehyde solution. The cells were stained with anti-HLA-DRB1 and fluorescein AAL, or anti-human or anti-mouse PD-L1 overnight. The following day the cells were washed 3 times prior to adding AlexaFluor 594 donkey anti-rabbit. Cells were washed 3 times and then subject to flow cytometric analyses using a FACSCalibur (BD Biosciences (San Jose, CA)). Samples were analyzed using FlowJo analysis software (BD Biosciences (San Jose, CA)). Median values of DRB1 and AAL were normalized to PKH26 values and statistical analysis was performed using GraphPad Prism.

[1] = system: bone marrow-derived MCs (BMMCs); assay: BMMC / T cell ex vivo co-culture (CTV proliferation, interferon-gamma release); assay type: cell-based
Excerpt: We next sought to see how the immunostimulatory capacity of these cells was altered after L-fucose treatment by culturing L-fucose modulated, either by decreased fucosylation via 2FF or increased fucosylation by L-fuc, MCs with immature T cells to asses (FIG. 22B) proliferation by loss of CTV staining and (FIG. 22C) T cell activation as evident by interferon-gamma release.

moDCs = assay: moDC dendrite length, phagocytosis (bead uptake) and Fitc-dextran uptake; assay type: cell-based
Excerpt: Our preliminary studies have begun to dissect and highlight moDC signaling changes induced by L-fuc treatment. Here, we present and discuss our novel findings on L-fuc-induced DC/moDC biology, the key mechanistic signaling changes that mediate these effects, and the important translational implications of these findings for efforts aimed at increasing/enhancing intratumoral DC function and anti-tumor immune responses.
Next we wanted to determine if L-fucose enhances the function phenotype of moDCs. […] Having determined that L-fucose alters the signaling of moDCs leading to an immunostimulatory phenotype, we next sought to identify other components of DC biology that are affected. To this end we examined L-fucose-treated mature dendritic cells for changes in (FIG. 26A) dendrite length and (FIG. 26B) phagocytosis by neutral bead uptake which may correlate with differential anti-tumor capacity in the TME.

## C[C@H](O)[C@@H](O)[C@@H](O)[C@H](O)C=O [L-fucose]
SM1 tumors
  tumor suppression, single agent: less tumor suppressive than anti-PD1 alone
SM1 tumors; L-fuc in combination with anti-PD1
  tumor suppression in combination with anti-PD1: augmented durable suppression
SW1 tumors
  SW1 tumor growth in immunodeficient mice: did not reduce
PD-L1
  cell surface levels of PD-L1: does not alter
[1]
  immunostimulatory capacity of treated dendritic cells (DCs): enhanced immunostimulatory capacity
moDCs
  dendrite length of moDCs: increased
moDCs; compared with untreated DCs
  uptake of exogenous Fitc-dextran bait by L-fuc-induced moDCs: significantly increased rate
moDCs; neutral bead uptake
  phagocytosis of moDCs: increased

Reference: patent US20260108547A1, “LEVERAGING L-FUCOSE-MEDIATED SIGNALING TO INDUCE MONOCYTE-DERIVED DENDRITIC CELL POLARIZATION” (H. LEE MOFFITT CANCER CENTER AND RESEARCH INSTITUTE, INC., priority 2022, published 2026)
